Reference: patent publication US7034070B2, “Arylalkyl aminofunctional silanes for epoxy laminates” (priority 2002, dated 2006)

Experiment: Water solubility test (aqueous solution clarity and stability)
Assay type: physicochemical
Conditions: for time the solution stayed clear (before turning hazy): 1.0 gram in 100 ml distilled water with 1% glacial acetic acid, ambient temperatures; for time until the slightly hazy solution turned clear: 1.0 gram sample in 100 ml distilled water acidified with 1% glacial acetic acid, stirring
Method: With stirring, 1.0 gram sample from Example 1 was added gradually to 100 ml of distilled water acidified with 1% glacial acetic acid. The solution was slightly hazy at the beginning but turned clear after 45 min. while the commercial product Z-6032 (Dow Coming) under similar conditions turned clear in 20 min.

Molecule	time the solution stayed clear (before turning hazy)	time until the slightly hazy solution turned clear
C=Cc1ccc(CNCCNCCC[Si](OC)(OC)OC)cc1.Cl [Example Z-6032, CH2═CHC6H4CH2NH(CH2)2NH(CH2)3Si(OCH3)3•HCl]	less than 1 week	20 min
CH3CH2C6H4CH2NH(CH2)2NH(CH2)3Si(OCH3)3•HCl [Example 1]	more than two weeks	45 min
